According to publication PMC8795149, “Characterization of a novel non-steroidal glucocorticoid receptor agonist optimized for topical treatment” (Scientific Reports, 2022):

Assays:
[1] = tested on: LPS-induced TNF-alpha release in PBMCs; experiment: TNF-alpha inhibition assay, mouse PBMCs; assay type: cell-based; conditions: for EC50: geometric mean
Protocol: PMBCs were isolated from human buffy coats or animal whole blood (EDTA-treated). Buffy coats from anonymized healthy adult blood donors were obtained from the Blood Bank of the National University Hospital Copenhagen in accordance with national legislation. Whole blood from mice (obtained from Charles River) was sampled at the animal facility at LEO Pharma and whole blood from pigs was sourced from ScanTox. Test compounds and PBMCs were incubated with 1 µg/ml LPS (Sigma) overnight at 37 °C in HEPES and Glutamax-containing RPMI medium supplemented with either 0.5% human serum albumin (human PBMCs) or 10% fetal bovine serum (mouse and pig PBMCs) and penicillin/streptomycin. TNF-alpha was measured using AlphaLISA (Perkin Elmer).
IC50 of test compounds was determined by 10-point titrations in duplicates. IC50 values and other parameters were calculated by sigmoidal curve fitting in Assay Explorer.

[2] = target: T1, mineralocorticoid receptor (MR) (Homo sapiens, UniProt P08235); experiment: MR agonist assay, MR-luciferase reporter cells; assay type: cell-based; conditions: 24 h incubation; 'in contrast' = unlike LEO 134310, which gave no significant activation
T1 sequence (P08235 1-984): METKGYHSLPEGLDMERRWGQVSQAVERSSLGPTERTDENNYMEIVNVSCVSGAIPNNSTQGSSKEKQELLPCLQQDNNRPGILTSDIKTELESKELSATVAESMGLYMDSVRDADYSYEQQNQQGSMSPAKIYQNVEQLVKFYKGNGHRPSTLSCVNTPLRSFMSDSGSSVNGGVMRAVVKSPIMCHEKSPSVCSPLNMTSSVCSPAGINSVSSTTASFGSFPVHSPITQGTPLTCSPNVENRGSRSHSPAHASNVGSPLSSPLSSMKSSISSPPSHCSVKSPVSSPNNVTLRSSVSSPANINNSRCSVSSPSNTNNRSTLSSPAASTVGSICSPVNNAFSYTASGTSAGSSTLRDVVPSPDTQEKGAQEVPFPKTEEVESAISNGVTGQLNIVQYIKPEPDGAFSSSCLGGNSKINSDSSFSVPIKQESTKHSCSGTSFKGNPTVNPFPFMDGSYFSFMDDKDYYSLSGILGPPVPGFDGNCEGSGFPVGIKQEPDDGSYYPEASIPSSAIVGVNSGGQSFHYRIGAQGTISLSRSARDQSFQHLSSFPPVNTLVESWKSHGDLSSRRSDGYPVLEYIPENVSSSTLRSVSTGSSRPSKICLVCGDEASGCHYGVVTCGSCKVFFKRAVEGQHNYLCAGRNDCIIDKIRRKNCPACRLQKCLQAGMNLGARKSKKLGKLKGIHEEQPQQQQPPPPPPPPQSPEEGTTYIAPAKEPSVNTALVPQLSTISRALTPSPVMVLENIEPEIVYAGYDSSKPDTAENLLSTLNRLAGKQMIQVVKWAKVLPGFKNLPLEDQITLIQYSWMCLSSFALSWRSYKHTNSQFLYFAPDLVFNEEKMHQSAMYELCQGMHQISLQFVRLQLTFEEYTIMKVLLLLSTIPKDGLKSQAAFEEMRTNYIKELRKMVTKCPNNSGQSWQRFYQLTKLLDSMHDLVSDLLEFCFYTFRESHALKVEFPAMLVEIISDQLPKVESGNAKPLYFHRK
Protocol: Assays were performed at Indigo Biosciences according to standard protocols. In brief, MR-luciferase reporter cells were incubated with medium containing charcoal-stripped fetal bovine serum and incubated with test and reference compounds for 24 h before measuring luminescence. Data were fitted by the means of four parameter logistic regression.

[3] = tested on: FKBP5 mRNA (GR target engagement); experiment: Human skin explant, FKBP5 gene expression; assay type: cell-based; conditions: human skin explants; for FKBP5 Emax / FKBP5 Relative ED50 (API concentration in dosing solution): topical, 24 h; for FKBP5 Relative ED50 (API concentration in dosing solution): weighted geometric mean ± SD
Protocol: NativeSkin models (NS002) were purchased from Genoskin, France. Human skin samples from abdominal reduction surgery were obtained by Genoskin from donors upon written informed consent. Full ethical approval for the study protocol was obtained from the French ethical research committee (Comité de Protection des Personnes), and authorization was given by the French Ministry of Research. The study was conducted according to the Declaration of Helsinki. 8 mm punch biopsies were excised and embedded in a fibrin-based matrix in transwells and a silicone ring was firmly attached to the surface covering the outer edge of the skin biopsy to prevent lateral diffusion of topically applied formulations. Skin models were cultured in a defined hydrocortisone- and serum-free medium provided by Genoskin.
LEO 134310 and reference glucocorticoids were dissolved in propylene carbonate and tested at 4 concentrations in five- or tenfold titrations. Compounds were applied in duplicates or triplicates on the skin surface (0.5 cm^2) in a volume of 2 µL and incubated for 24 h. Vehicle and untreated samples were included for basal level of expression.
RNA was extracted and qPCR was performed using TaqMan gene expression assays (FKBP5-Hs01561006_m1, TSC22D3 (GILZ)-Hs00608272_m1, TXNIP-Hs01006900_g1, ACTB-Hs99999903_m1, PPIA-Hs99999904_m1, GAPDH-Hs99999905_m1). Gene expression of FKBP5,TSC22D3 (GILZ), and TXNIP was normalized to the geometric mean of the reference genes ACTB, PPIA and GAPDH.
Doses were expressed as compound (API) concentrations (µg/mL) in the applied formulations. Relative upregulation of FKBP5 was estimated as − fold to vehicle treated control. Effective doses (Emax and ED50) were determined from a sigmoid Emax model in Phoenix64 version 8.0, Pharsight, Certara. Mean values and standard deviation of Emax and ED50 were calculated by weighing individual experiments based on the intra- and inter-experiment variability.

[4] = tested on: spleen weight, plasma osteocalcin, body weight; experiment: TPA-induced skin inflammation in mice, systemic side effects; assay type: in vivo, mouse; conditions: for Reduction of body weight gain, spleen weight, and plasma osteocalcin levels: indicating systemic exposure; for Osteocalcin concentration ID50 / Osteocalcin concentration Imax: plasma; for Spleen weight ID50 / Spleen weight Imax: topical; for Suppression of osteocalcin levels at efficacious doses on skin inflammation: mouse TPA model
Protocol: Female Balb/c mice of 7 to 8 weeks old were obtained from Charles River, Germany and acclimatized for at least 1 week. Skin inflammation was induced by repeated topical application of TPA (20 μL of 0.01% TPA in acetone; 10 μL to each side of ear) on days 1, 3, 5, 8 and 10.
Treatments were performed by topical application of either vehicle (90% acetone, 10% transcutol), Treatments were applied twice daily on days 8, 9, 10, and once on day 11 (20–10 μL to each side of ear) with at least 5 h between the first and second treatment. TPA challenge on days 8 and 10 was performed at least 1 h after the first treatment. On day 11, animals were sacrificed 2 h after the last dosing. Blood was sampled by cardiac puncture from animals anaesthetized with isoflurane. Thereafter, ear biopsies were taken with a biopsy punch (8 mm diameter), weighed and stored at – 80 °C. Plasma osteocalcin levels were analyzed by EIA (rat-MID, IDS, UK). Effective inhibitory doses (ID50) were determined from a sigmoid I(max) model in Phoenix64, Pharsight, Certara. Therapeutic Index (TI) was calculated either as ID50 for spleen weight reduction or ID50 for blood osteocalcin concentrations, divided by ID50 for ear weight reduction.

[5] = TPA mouse model, CV (%) in brackets

SMILES	Emax ([1]; PBMC) [%]	EC50 ([1]; PBMC) [nM]	Activation of MR (luciferase activity) [2]	FKBP5 Emax [3]	FKBP5 Relative ED50 (API concentration in dosing solution) [3]	Therapeutic index (Osteocalcin ID50/Ear ID50) ([4]; TPA mouse model)	Therapeutic index (Spleen ID50/Ear ID50) ([4]; TPA mouse model)	Reduction of body weight gain, spleen weight, and plasma osteocalcin levels ([4]; TPA mouse model)	Osteocalcin concentration ID50 [4, 5]	Osteocalcin concentration Imax [4, 5]	Spleen weight ID50 [4, 5]	Spleen weight Imax [4, 5]	Suppression of osteocalcin levels at efficacious doses on skin inflammation [4]	Inhibition of LPS-induced TNF-alpha release Emax [1] [%]	EC50 [1] [nM]	Higher dose needed to achieve similar level of FKBP5 induction as BMV [3]	Higher therapeutic index (osteocalcin ID50 to ear weight ID50) compared to CP and BMV ([4]; TPA mouse model) [fold]	Higher therapeutic index (spleen weight ID50 to ear weight ID50) compared to CP and BMV ([4]; TPA mouse model) [fold]	Spleen weight ID50 (extrapolated) ([4]; TPA mouse model, ID50 could not be determined, value extrapolated, CV (%) in brackets)
CCCCC(=O)O[C@]1(C(=O)CO)[C@@H](C)C[C@H]2[C@@H]3CCC4=CC(=O)C=C[C@]4(C)[C@@]3(F)[C@@H](O)C[C@@]21C [BMV, Betamethasone Valerate]	95	0.22	in contrast	5.6 ± 4.9 fold to control	9.5 ± 6.9 µg/mL	39	21	dose-dependent reduction	200 (24) µg/mL	74 (10) %	110 (25) µg/mL	58 (9) %	did	–	–	–	–	–	–
CCC(=O)O[C@]1(C(=O)CCl)[C@@H](C)C[C@H]2[C@@H]3CCC4=CC(=O)C=C[C@]4(C)[C@@]3(F)[C@@H](O)C[C@@]21C [CP, Clobetasol Propionate]	95	0.15	in contrast	6.9 ± 3.1^NS fold to control	0.52 ± 0.06^NS µg/mL	43	17	dose-dependent reduction	64 (17) µg/mL	88 (4) %	26 (27) µg/mL	70 (8) %	did	–	–	–	–	–	–
C[C@H](NC(=O)[C@H]1CCCO1)[C@H](Oc1ccc(C(=O)O[C@H]2CCCN(C(=O)[C@H]3COC(=O)C3)C2)cc1)c1ccc(C2CC2)cc1 [LEO 134310]	–	–	No significant activation of MR	7.2 ± 2.7^NS fold to control	270 ± 130 µg/mL	> 200	49	not—or only to a lesser extent	–	–	–	42 (56) %	did not suppress osteocalcin levels	102	0.58	approximately 30 fold	> 5	2	25,000 (110) µg/mL
